Test results as given in patent publication US8415272B2, “Quinoline derivatives and their use as fungicides” (Syngenta Crop Protection LLC, priority 2008, dated 2013).

Legend:
[1] = tested on: Septoria tritici; assay: Growth inhibition in nutrient broth, Septoria tritici (leaf blotch), photometric; assay type: cell-based; conditions: Zymoseptoria tritici, PDB broth, 24 C, 72 hrs, read-out: control of fungal infection, Septoria tritici
[2] = tested on: Pythium ultimum; assay: Growth inhibition in potato dextrose broth, Pythium ultimum (damping off), photometric; assay type: cell-based; conditions: Globisporangium ultimum, 24° C., 48 hours, read-out: control of fungal infection, Pythium ultimum
In short: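 Growth inhibition was read photometrically at 48 hours after incubation at 24° C. Test compound was diluted from DMSO to 20 ppm in water and combined with potato dextrose broth seeded with Pythium ultimum mycelial fragments.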

[3] = tested on: Plasmopara viticola; assay: Leaf disk assay, Plasmopara viticola (downy mildew of grapevine), preventive; assay type: in vivo; conditions: foliar, 168 h, grapevine leaf disks, assessed seven days after inoculation, read-out: control of fungal infection, Plasmopara viticola
[4] = tested on: Phytophthora infestans; assay: whole plant or invertebrate; assay type: in vivo; conditions: in Solanum lycopersicum, foliar, 96 h, read-out: control of fungal infection, Phytophthora infestans
[5] = tested on: Botrytis cinerea; assay: Leaf disk assay, Botrytis cinerea (grey mould) on bean, preventive; assay type: in vivo; conditions: foliar, 96 h, bean leaf disks, assessed four days after inoculation, read-out: control of fungal infection, Botrytis cinerea
[6] = tested on: Septoria nodorum; assay: Leaf disk assay, Septoria nodorum (wheat glume blotch), preventive; assay type: in vivo; conditions: Parastagonospora nodorum, foliar, 96 h, wheat leaf segments, assessed four days after inoculation, read-out: control of fungal infection, Septoria nodorum
[7] = tested on: Pyrenophora teres; assay: Leaf disk assay, Pyrenophora teres (barley net blotch), preventive; assay type: in vivo; conditions: foliar, 96 h, barley leaf segments, assessed four days after inoculation, read-out: control of fungal infection, Pyrenophora teres
Protocol: The compounds were tested in a leaf disk assay, with methods described below. The test compounds were dissolved in DMSO and diluted into water to 200 ppm. In the case of the test on Pythium ultimum, they were dissolved in DMSO and diluted into water to 20 ppm. Pyrenophora teres (barley net blotch): Barley leaf segments were placed on agar in a 24-well plate and sprayed with a solution of the test compound. After allowing to dry completely, for between 12 and 24 hours, the leaf disks were inoculated with a spore suspension of the fungus. After appropriate incubation the activity of a compound was assessed four days after inoculation as preventive fungicidal activity.

[8] = tested on: Erysiphe graminis f.sp. tritici; assay: Leaf disk assay, Erysiphe graminis f.sp. tritici (wheat powdery mildew), preventive; assay type: in vivo; conditions: Blumeria graminis, foliar, 96 h, wheat leaf segments, assessed four days after inoculation, read-out: control of fungal infection, Erysiphe graminis f.sp. tritici
In short: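 Wheat leaf segments on agar were sprayed with compound at 200 ppm (DMSO stock diluted in water). After 12–24 h drying they were inoculated with powdery mildew spores. Preventive activity was scored 4 days after inoculation.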

[9] = tested on: Puccinia recondita f.sp. tritici; assay: Leaf disk assay, Puccinia recondita f.sp. tritici (wheat brown rust), preventive; assay type: in vivo; conditions: foliar, 216 h, wheat leaf segments, assessed nine days after inoculation, read-out: control of fungal infection, Puccinia recondita f.sp. tritici
[10] = tested on: Fusarium culmorum; assay: Growth inhibition in nutrient broth, Fusarium culmorum (root rot), photometric; assay type: cell-based; conditions: 48 h, read-out: control of fungal infection, Fusarium culmorum
In short: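 Fusarium culmorum conidia in potato dextrose broth were added to compounds in DMSO. Plates were incubated at 24 C for 48 hrs, with growth inhibition read photometrically. […]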

CSC(Oc1cc(C)c2ncc(C#CCO)cc2c1)C(=O)NC(C)(C)C (stereo not shown) [Example 17]
≥ 60%: inhibition of growth at 60 ppm [1] | inhibition of growth at 20 ppm [2] | pest or weed control at 200 ppm [3] | pest or weed control at 200 ppm [4] | pest or weed control at 200 ppm [5]

C#Cc1cnc2c(Cl)cc(OC(SC)C(=O)NC(C)(C)C)cc2c1 (stereo not shown) [Example 18]
≥ 60%: inhibition of growth at 60 ppm [1] | pest or weed control at 200 ppm [6] | pest or weed control at 200 ppm [7] | inhibition of growth at 20 ppm [2] | pest or weed control at 200 ppm [3] | pest or weed control at 200 ppm [8] | pest or weed control at 200 ppm [4] | pest or weed control at 200 ppm [9] | inhibition of growth at 60 ppm [10]

C#Cc1cnc2ccc(OC(SC)C(=O)NC(C)(C)C#C)cc2c1 (stereo not shown) [Example 21]
≥ 60%: inhibition of growth at 60 ppm [1] | pest or weed control at 200 ppm [6] | pest or weed control at 200 ppm [7] | inhibition of growth at 20 ppm [2] | pest or weed control at 200 ppm [3] | pest or weed control at 200 ppm [8] | pest or weed control at 200 ppm [4] | pest or weed control at 200 ppm [9] | inhibition of growth at 60 ppm [10]

C#Cc1cnc2ccc(OC(SC)C(=O)NC(C)(C)C#CC)cc2c1 (stereo not shown) [Example 22]
≥ 60%: inhibition of growth at 60 ppm [1] | pest or weed control at 200 ppm [6] | pest or weed control at 200 ppm [7] | inhibition of growth at 20 ppm [2] | pest or weed control at 200 ppm [3] | pest or weed control at 200 ppm [8] | pest or weed control at 200 ppm [4] | pest or weed control at 200 ppm [9] | inhibition of growth at 60 ppm [10]

C#Cc1cnc2ccc(OC(SC)C(=O)NC(C)(C)C#CCOC)cc2c1 (stereo not shown) [Example 23]
≥ 60%: inhibition of growth at 60 ppm [1] | pest or weed control at 200 ppm [6] | pest or weed control at 200 ppm [7] | inhibition of growth at 20 ppm [2] | pest or weed control at 200 ppm [3] | pest or weed control at 200 ppm [8] | pest or weed control at 200 ppm [4] | pest or weed control at 200 ppm [9] | inhibition of growth at 60 ppm [10]

C#CCOCC#CC(C)(C)NC(=O)C(Oc1ccc2ncc(C#C)cc2c1)SC (stereo not shown) [Example 24]
≥ 60%: inhibition of growth at 60 ppm [1] | pest or weed control at 200 ppm [6] | pest or weed control at 200 ppm [7] | inhibition of growth at 20 ppm [2] | pest or weed control at 200 ppm [3] | pest or weed control at 200 ppm [8] | pest or weed control at 200 ppm [4] | pest or weed control at 200 ppm [9] | inhibition of growth at 60 ppm [10]

COCC#CC(C)(C)NC(=O)C(Oc1cc(C)c2ncc(C#CCO)cc2c1)SC (stereo not shown) [Example 28]
≥ 60%: inhibition of growth at 20 ppm [2] | pest or weed control at 200 ppm [4] | pest or weed control at 200 ppm [5]

C#Cc1cnc2ccc(OC(SC)C(=O)NC(C)(C)COC)cc2c1 (stereo not shown) [Example 29]
≥ 60%: inhibition of growth at 60 ppm [1] | pest or weed control at 200 ppm [6] | pest or weed control at 200 ppm [7] | inhibition of growth at 20 ppm [2] | pest or weed control at 200 ppm [3] | pest or weed control at 200 ppm [8] | pest or weed control at 200 ppm [4] | pest or weed control at 200 ppm [9] | inhibition of growth at 60 ppm [10]

COCC#Cc1cnc2ccc(OC(SC)C(=O)NC(C)(C)C#CCOC)cc2c1 (stereo not shown) [Example 44]
≥ 60%: inhibition of growth at 60 ppm [1] | inhibition of growth at 20 ppm [2] | pest or weed control at 200 ppm [3] | pest or weed control at 200 ppm [8] | pest or weed control at 200 ppm [4] | pest or weed control at 200 ppm [5]

CC#CC(C)(C)NC(=O)C(Oc1ccc2ncc(C#CCOC)cc2c1)SC (stereo not shown) [Example 45]
≥ 60%: inhibition of growth at 60 ppm [1] | inhibition of growth at 20 ppm [2] | pest or weed control at 200 ppm [3] | pest or weed control at 200 ppm [8] | pest or weed control at 200 ppm [4] | pest or weed control at 200 ppm [5]

CC#Cc1cnc2ccc(OC(SC)C(=O)NC(C)(C)C#CC)cc2c1 (stereo not shown) [Example 56]
≥ 60%: inhibition of growth at 60 ppm [1] | pest or weed control at 200 ppm [6] | inhibition of growth at 20 ppm [2] | pest or weed control at 200 ppm [3] | pest or weed control at 200 ppm [8] | pest or weed control at 200 ppm [4] | pest or weed control at 200 ppm [5]

C#Cc1cnc2c(C)cc(OC(SC)C(=O)NC(C)(C)C=O)cc2c1 (stereo not shown) [Example 73]
≥ 60%: inhibition of growth at 60 ppm [1] | pest or weed control at 200 ppm [6] | pest or weed control at 200 ppm [7] | inhibition of growth at 20 ppm [2] | pest or weed control at 200 ppm [3] | pest or weed control at 200 ppm [8] | pest or weed control at 200 ppm [4] | pest or weed control at 200 ppm [5]

CC#CC(C)(C)NC(=O)C(OC)Oc1ccc2ncc(C#C[Si](C)(C)C)cc2c1 (stereo not shown) [Example 79]
≥ 60%: inhibition of growth at 60 ppm [1] | pest or weed control at 200 ppm [3] | pest or weed control at 200 ppm [8] | pest or weed control at 200 ppm [4] | pest or weed control at 200 ppm [5]

C#Cc1cnc2c(C)cc(OC(SC)C(=O)NC(C)(C)CF)cc2c1 (stereo not shown) [Example 93]
≥ 60%: inhibition of growth at 60 ppm [1] | pest or weed control at 200 ppm [6] | pest or weed control at 200 ppm [7] | inhibition of growth at 20 ppm [2] | pest or weed control at 200 ppm [3] | pest or weed control at 200 ppm [8] | pest or weed control at 200 ppm [4] | pest or weed control at 200 ppm [9] | inhibition of growth at 60 ppm [10]

C#Cc1cnc2ccc(OC(SC)C(=O)NC(C)(C)CC)cc2c1 (stereo not shown) [Example 94]
≥ 60%: inhibition of growth at 60 ppm [1] | pest or weed control at 200 ppm [6] | pest or weed control at 200 ppm [7] | inhibition of growth at 20 ppm [2] | pest or weed control at 200 ppm [3] | pest or weed control at 200 ppm [8] | pest or weed control at 200 ppm [4] | pest or weed control at 200 ppm [9] | inhibition of growth at 60 ppm [10]

C#Cc1cnc2cc(F)c(OC(SC)C(=O)NC(C)(C)C)cc2c1 (stereo not shown) [Example 104]
≥ 60%: inhibition of growth at 60 ppm [1] | pest or weed control at 200 ppm [6] | pest or weed control at 200 ppm [7] | inhibition of growth at 20 ppm [2] | pest or weed control at 200 ppm [3] | pest or weed control at 200 ppm [8] | pest or weed control at 200 ppm [4] | pest or weed control at 200 ppm [9] | inhibition of growth at 60 ppm [10]

C#Cc1cnc2cc(F)c(OC(SC)C(=O)NC(C)(C)C#C)cc2c1 (stereo not shown) [Example 106]
≥ 60%: inhibition of growth at 60 ppm [1] | pest or weed control at 200 ppm [6] | pest or weed control at 200 ppm [7] | inhibition of growth at 20 ppm [2] | pest or weed control at 200 ppm [3] | pest or weed control at 200 ppm [8] | pest or weed control at 200 ppm [4] | pest or weed control at 200 ppm [9] | inhibition of growth at 60 ppm [10]

C#Cc1cnc2ccc(OC(SC)C(=O)NC(C)(C)C#CCC)cc2c1 (stereo not shown) [Example 117]
≥ 60%: inhibition of growth at 60 ppm [1] | pest or weed control at 200 ppm [6] | pest or weed control at 200 ppm [7] | inhibition of growth at 20 ppm [2] | pest or weed control at 200 ppm [3] | pest or weed control at 200 ppm [8] | pest or weed control at 200 ppm [4] | pest or weed control at 200 ppm [9] | inhibition of growth at 60 ppm [10]

C#Cc1cnc2c(Br)cc(OC(SC)C(=O)NC(C)(C)C#C)cc2c1 (stereo not shown) [Example 130]
≥ 60%: inhibition of growth at 60 ppm [1] | pest or weed control at 200 ppm [6] | pest or weed control at 200 ppm [7] | inhibition of growth at 20 ppm [2] | pest or weed control at 200 ppm [3] | pest or weed control at 200 ppm [8] | pest or weed control at 200 ppm [4] | pest or weed control at 200 ppm [9] | inhibition of growth at 60 ppm [10]

C#Cc1cnc2c(Br)cc(OC(SC)C(=O)NC(C)(C)C#CC)cc2c1 (stereo not shown) [Example 131]
≥ 60%: inhibition of growth at 60 ppm [1] | pest or weed control at 200 ppm [6] | pest or weed control at 200 ppm [7] | inhibition of growth at 20 ppm [2] | pest or weed control at 200 ppm [3] | pest or weed control at 200 ppm [8] | pest or weed control at 200 ppm [4] | pest or weed control at 200 ppm [9] | inhibition of growth at 60 ppm [10]

C#Cc1cnc2c(Br)cc(OC(SC)C(=O)NC(C)(C)C)cc2c1 (stereo not shown) [Example 132]
≥ 60%: inhibition of growth at 60 ppm [1] | pest or weed control at 200 ppm [6] | pest or weed control at 200 ppm [7] | inhibition of growth at 20 ppm [2] | pest or weed control at 200 ppm [3] | pest or weed control at 200 ppm [8] | pest or weed control at 200 ppm [4] | pest or weed control at 200 ppm [9] | inhibition of growth at 60 ppm [10]

C#Cc1cnc2c(F)c(F)c(OC(SC)C(=O)NC(C)(C)C)cc2c1 (stereo not shown) [Example 219]
≥ 60%: inhibition of growth at 60 ppm [1] | pest or weed control at 200 ppm [6] | pest or weed control at 200 ppm [7] | inhibition of growth at 20 ppm [2] | pest or weed control at 200 ppm [3] | pest or weed control at 200 ppm [8] | pest or weed control at 200 ppm [4] | pest or weed control at 200 ppm [9] | inhibition of growth at 60 ppm [10]
